Test results taken from patent US6656927B1, “Ip3 receptor ligands” (Daiichi Pharmaceutical., Ltd., priority 1999, dated 2003).

What was measured:
[1] = biological target: T1, IP3 binding domain (IBD, amino acid residues 1-885) of human IP3 receptor type 1 (Homo sapiens, UniProt Q14643); experiment: Surface plasmon resonance competitive binding assay on Compound 1-immobilized sensor tip; settings: for Kd: SPR competitive assay, Compound 2b re-assayed at IBD 1.76 nM; for Kd / binding of IBD to a Compound 1-immobilized tip: IBD 52.8 nM; for binding of IBD to a Compound 1-immobilized tip: competitive assay, FIG. 1B; for affinity relative to that of IP3: ratio of affinity to IBD versus IP3 (Table 1); for non-specific binding to the IP3 receptor in the competitive assay: IBD 1.76 nM, FIG. 1C
T1 construct: glutathione S-transferase (GST), joined by linker Leu-Val-Pro-Arg-Gly-Ser (N); His tag, joined by linker Leu-Val-Pro-Arg-Gly-Ser (C); made in house; host or cells: Escherichia coli BL-21 (DE3), vector pGEX2T
T1 sequence (Q14643 1-885 isoform Q14643-4): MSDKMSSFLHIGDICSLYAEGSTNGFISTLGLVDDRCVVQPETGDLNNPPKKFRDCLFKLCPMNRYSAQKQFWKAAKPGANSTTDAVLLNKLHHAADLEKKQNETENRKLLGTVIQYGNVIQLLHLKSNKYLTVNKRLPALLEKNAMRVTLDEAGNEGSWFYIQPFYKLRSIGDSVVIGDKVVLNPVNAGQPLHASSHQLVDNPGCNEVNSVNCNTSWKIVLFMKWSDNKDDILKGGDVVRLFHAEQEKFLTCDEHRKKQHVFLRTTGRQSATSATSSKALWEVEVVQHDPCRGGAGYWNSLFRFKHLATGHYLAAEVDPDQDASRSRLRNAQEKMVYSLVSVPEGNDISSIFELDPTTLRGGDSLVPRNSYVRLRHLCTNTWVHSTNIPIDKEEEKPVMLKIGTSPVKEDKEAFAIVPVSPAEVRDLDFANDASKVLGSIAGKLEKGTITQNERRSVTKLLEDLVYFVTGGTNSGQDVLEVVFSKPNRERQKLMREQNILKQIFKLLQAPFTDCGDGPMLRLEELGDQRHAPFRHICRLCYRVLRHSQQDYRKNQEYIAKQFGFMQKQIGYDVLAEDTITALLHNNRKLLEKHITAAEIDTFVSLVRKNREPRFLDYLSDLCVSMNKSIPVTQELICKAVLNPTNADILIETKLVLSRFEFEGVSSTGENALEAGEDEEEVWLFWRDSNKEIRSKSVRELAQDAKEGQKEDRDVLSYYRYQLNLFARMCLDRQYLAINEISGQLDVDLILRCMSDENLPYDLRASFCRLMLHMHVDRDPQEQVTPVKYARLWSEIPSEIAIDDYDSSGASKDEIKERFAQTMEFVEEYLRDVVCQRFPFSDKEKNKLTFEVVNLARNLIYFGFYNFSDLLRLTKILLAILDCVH
Text: (1) Expression and Purification of Human IP3 Receptor Type 1
The IP3 binding domain (IBD, amino acid residues 1-885, Mignery, G. A., et al., EMBO J., 9, 3893, 1990) of human IP3 receptor type 1 (Yamada, N., et al., Biochem. J., 302, 781, 1994) was subcloned in pGEX2T (Amersham Pharmacia) for expression in bacteria. The N-terminus of IBD was fused to glutathione S-transferase using a linker sequence Leu-Val-Pro-Arg-Gly-Ser, whilst the C-terminus of IBD was labeled at His using a linker sequence Leu-Val-Pro-Arg-Gly-Ser. The protein was expressed in Escherichia coli BL-21 (DE3), and a recombinant protein was purified by using a resin on which Ni-NTA was immobilized (Amersham Pharmacia) and a HiTrap NHS-activated affinity column (Amersham Pharmacia) to which Compound 1 was bound. The purity of protein was calculated as 22% based on the result from SDS-PAGE.
(2) Measurement of Surface Plasmon Resonance
Surface plasmon resonance (SPR) was measured by using BIAcore 2000 (Amersham Pharmacia). After activation with NHS and EDC, 10 mM of Compound 1 in 100 mM borate buffer (pH 8.5) was bound to the surface of CM5 sensor tip, and inactivated with ethanolamine. In order to determine dissociation constants of IP3, Compound 1, Compound 2a, and Compound 2b, IBD purified beforehand was dissolved in a mobile phase buffer (10 mM HEPES, 150 mM NaCl, 3.4 mM EDTA and 0.005% Tween20, pH 7.4) together with each of the compounds. After each sample was injected, the tip surface was regenerated with 100 mM NaOH.
IBD bound to the tip in a concentration-dependent manner, however, non-specific binding with BSA (or glutathione S-transferase) was not observed. […] In order to determine affinity of IP3, Compound 1, Compound 2a and Compound 2b to IBD, a competitive assay was performed as follows. IBD (52.8 nM) was mixed with each of the aforementioned compounds at various concentrations. When the mixture was introduced onto the tip, a compound that competed with Compound 1 was […] (FIG. 1B). SPR obtained from this assay was applied to the equation to calculate dissociation constant (Kd) of each compound.
(3) Calculation of Dissociation Constants
For calculation of Kd of each compound, the resulting data plotted in FIGS. 1B and 1C were applied to the formula: 100[1−[X+Y+Kd−{X^2+2X (Kd−Y)+(Kd+Y)^2}^½]/2Y] wherein X and Y are a concentration of each compound and IBD concentration, respectively. […] Therefore, the IBD concentration was lowered to 1.76 nM, and the competitive assay for Compound 2b was performed again (FIG. 1C). The binding assay was carried out under a light condition and under a dark condition to verify that the binding was not affected by light.

[2] = test system: IP3 receptor; experiment: Denaturation of the IP3 receptor by light irradiation: IP3-induced Ca2+ releasing activity in smooth muscle tissue specimen; settings: guinea pig portal vein smooth muscle, 1 μM compound, 1 μM IP3, FIG. 2C
Protocol: (1) Preparation of a Tissue Specimen
A strip of smooth muscle tissue prepared from a portal vein of male guinea pigs (weight 200-300 g) was fixed on a stainless steel wire to prepare a tissue specimen.
(2) Measurement of Ca^2+ Releasing Activity
The above specimen was incubated at 35° C. for 3.5 hours in a 40 μM solution of mag-fura-2 AM (Molecular Probes) as a Ca^2+ fluorescent indicator to have the mag-fura-2 AM taken up by the specimen. Subsequently, the specimen was incubated at 35° C. for 1.5 to 2 hours in a 40-60 μM solution of β-escin as a surfactant to remove the mag-fura-2 AM present other than in intracellular organelles.
The specimen was inserted into a glass capillary, and then initial change of fluorescence intensity ratio (fluorescence intensity at Ex. 340 nm, Em.480 nm/fluorescence intensity at Ex. 375 nm, Em. 480 nm, i.e., releasing rate), at addition of various solutions to the specimen, was fitted to an exponential curve to obtain a value as Ca^2+ releasing activity. As the fluorescence photometer, CAF-110 (JASCO) was used. […]
The tissue specimen prepared in the above (1) was added with 1 μM IP3, and its Ca^2+ releasing activity was measured (before irradiation). This specimen was removed from a fluorescence photometer after the measurement, and the inside of a capillary was filled with 1 μM solution of Compound 2b. […]

Compound | Kd [1] | binding of IBD to a Compound 1-immobilized tip [1] | affinity relative to that of IP3 [1] | non-specific binding to the IP3 receptor in the competitive assay [1] | Ca2+ releasing activity induced by IP3, addition of compound only (no laser irradiation) [2] | Ca2+ releasing activity induced by IP3, addition of compound and laser irradiation ([2]; 635 nm laser 3 minutes)
NCCCOP(=O)(O)O[C@@H]1[C@H](O)[C@H](O)[C@@H](OP(=O)(O)O)[C@H](OP(=O)(O)O)[C@H]1O [Compound 1] | 1100 nM | inhibited | about ⅙ |  |  | 
CN(C)c1ccc(C(=C2C=CC(=[N+](C)C)C=C2)c2ccc(C(=O)NCCCOP(=O)(O)O[C@@H]3[C@H](O)[C@H](O)[C@@H](OP(=O)(O)O)[C@H](OP(=O)(O)O)[C@H]3O)cc2)cc1 [Compound 2b] | 1.17 nM | inhibited | 167 fold | specifically bound to the IP3 receptor | not reduced | remarkably reduced
O=P(O)(O)O[C@@H]1[C@H](O)[C@H](O)[C@@H](OP(=O)(O)O)[C@H](OP(=O)(O)O)[C@H]1O [IP3, D-Myo-inositol-1,4,5-trisphosphate] | 195 nM | inhibited |  |  |  | 
carboxymalachite green |  |  |  | non-specific binding was not observed |  | 
